# Source: patent US8053585B2, “Protecting group for carboxylic acids that can be photolyzed by visible light” (Cornell Research Foundation, Inc., priority 2006, dated 2011)
# Legend:
# GluR6 glutamate receptor = test: Stability in aqueous solution by whole-cell recording, cells used as glutamate detector; assay type: cell-based; details: 2 mM solution, 24 h in the dark at −20° C., pH 7.4
# From the text: (§1) In whole-cell current recording experiments with DECM-caged glutamate, HEK 293 cells stably transfected with cDNA encoding the GluR6 were used. In whole-cell current recording experiments with DECM-caged glycine, HEK 293 cells were transiently transfected with the cDNA of the α1-subunit of the human glycine receptor by using the Polyfect™ transfection reagent (Qiagen GmbH, D-40724, Hilden, Germany). The cDNA of the α1-subunit was kindly provided by Professor H. Betz (Max-Plank-Institute for brain Research, Frankfurt, Germany). The cells were co-transfected with cDNA encoding the green fluorescent protein (pGreen Lantern plasmid, Life Technologies, Gaitherberg, Md.) to detect transfected cells (Chalfie et al., “Green Fluorescent Protein as a Marker for Gene Expression,” Science 263:802-805 (1994), which is hereby incorporated by reference in its entirety).
# (§2) The cells were used for electrophysiological experiments between 24 and 72 h after each passage. Whole-cell currents evoked by glutamate or glycine (100 μM) were recorded using the whole-cell configuration (Hamill et al., “Improved Patch-Clamp Techniques for High-Resolution Current Recording From Cells and Cell-Free Membrane Patches,” Pfluegers Arch 391:85-100 (1981), which is hereby incorporated by reference in its entirety) at room temperature, −60 mV, and pH 7.4. […]
# [1] = target: T1, α1-subunit human glycine receptor (Homo sapiens, UniProt P23415); test: Stability in aqueous solution by whole-cell current recording, cells used as glycine detector; assay type: cell-based; details: 1 mM solution, 20 hours in the dark, pH 7.4
# T1 construct: expressed in transfected cells; host or cells: HEK 293 cells, transiently transfected (Polyfect), co-transfected with GFP plasmid as marker; cDNA from Prof; H. Betz
# T1 sequence (P23415 29-457): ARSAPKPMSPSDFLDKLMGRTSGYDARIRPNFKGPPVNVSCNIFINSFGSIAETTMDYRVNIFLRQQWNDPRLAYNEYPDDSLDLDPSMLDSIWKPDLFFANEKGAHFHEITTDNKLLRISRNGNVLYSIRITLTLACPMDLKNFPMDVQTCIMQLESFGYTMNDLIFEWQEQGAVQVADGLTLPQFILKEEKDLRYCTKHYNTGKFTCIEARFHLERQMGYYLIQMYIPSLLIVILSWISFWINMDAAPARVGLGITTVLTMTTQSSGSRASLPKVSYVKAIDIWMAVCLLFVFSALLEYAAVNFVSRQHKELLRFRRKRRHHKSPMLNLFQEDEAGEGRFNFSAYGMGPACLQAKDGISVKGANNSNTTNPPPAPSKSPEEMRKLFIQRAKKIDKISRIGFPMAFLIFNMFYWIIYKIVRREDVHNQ
# From the text: as §1, §2
free glutamate in solution of caged compound (GluR6 glutamate receptor),SMILES,free glycine in solution of caged compound [1]
no free glutamate was detected,"CCN(CC)c1ccc2c(COC(=O)CCC(N)C(=O)O)cc(=O)oc2c1 (centres unmarked) [DECM-caged glutamate, (7-N,N-Diethylaminocoumarin-4-yl)-methyl-glutamate-trifluoroacetate]",–
–,"CCN(CC)c1ccc2c(COC(=O)CN)cc(=O)oc2c1 [DECM-caged glycine, (7-N,N-Diethylaminocoumarin-4-yl)-methyl-glycine-trifluoroacetate]",no free glycine was detected
